According to US20090012104A1, “Inhibitors of 5'-Methylthioadenosine Phosphorylase and 5'-Methylthioadenosine/S-Adenosylhomocysteine Nucleosidase” (priority 2004, published 2009):

Molecular target: T1, E. coli MTA/AdoHcy nucleosidase (MTAN) (Escherichia coli, UniProt P0AF12)
T1 construct: hexahistidine; made in house; host or cells: bacterial expression vector
Assay: MTAN direct UV spectrophotometric enzyme assay (cleavage of MTA, absorbance at 275 nm)
Type: biochemical
Details: initial rates fitted to competitive inhibition; 100-250 μM MTA, 50 mM sodium phosphate pH 7, 0-1 μM inhibitor, 25° C; read-out: Ki (inhibitor constant for the initial rate reactions)
Experimental: The gene for E. coli MTA/AdoHcy nucleosidase (MTAN) was amplified and cloned into a bacterial hexahistidine plasmid expression vector. Induced recombinant enzyme was purified by Nickel-chelate chromatography, and dialyzed into 100 mM sodium phosphate buffer, pH 7. Enzyme purity was assessed by SDS-PAGE and concentration assigned using the experimentally determined extinction coefficient (ε280=10480 M^−1cm^−1).
MTAN assays were performed in 1 mL quartz cuvettes using a Perkin Elmer Lambda 35 UV/V is spectrometer outfitted with KinLab and UV WinLab software. This direct UV spectrophotometric assay follows the decrease in absorbance at 275 nm that accompanies the cleavage of MTA to MTR and Ade. (2-(4-Amino-5H-pyrrolo[3,2-d]pyrimidin-7-yl)-5-methyl-sulfanylmethyl-pyrrolidine-3,4-diol) and (2-Amino-4-[5-(4-amino-5H-pyrrolo[3,2-d]pyrimidin-7-yl)-3,4 dihydroxy-pyrrolidin-2-ylmethylsulfanyl]-butyric acid) inhibitor concentrations were assigned using UV absorbance and the extinction coefficient of 9-deazaadenine. […] Reactions were initiated by the addition of […] MTAN enzyme to the 1 mL assay mixture, and the change in UV absorbance followed for 20-25 minutes. […] Inhibitor constants for the initial rate reactions (Ki's) were calculated by fitting the results to the equation for competitive inhibition.

T1 sequence (P0AF12 whole entry): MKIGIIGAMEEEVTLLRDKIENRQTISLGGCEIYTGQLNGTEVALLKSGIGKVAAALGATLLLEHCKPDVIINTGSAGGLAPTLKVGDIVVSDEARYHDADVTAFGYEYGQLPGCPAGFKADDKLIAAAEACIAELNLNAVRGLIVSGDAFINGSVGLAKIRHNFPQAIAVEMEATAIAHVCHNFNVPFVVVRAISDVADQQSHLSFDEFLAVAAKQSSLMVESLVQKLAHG

Nc1ncnc2c(C3NC(CSCCC(N)C(=O)O)C(O)C3O)c[nH]c12 (stereo not shown) [2-Amino-4-[5-(4-amino-5H-pyrrolo[3,2-d]pyrimidin-7-yl)-3,4-dihydroxy-pyrrolidin-2-ylmethylsulfanyl]-butyric acid]
Ki: < 10 nM
